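GI50 = concentration required for 50% inhibition of growth. The concentration for full growth arrest is given as TGI.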
Assays:
Assay in all cases: inhibition of tumour cell growth, NCI panel, 384-well format
[1] = test system: T-47D breast
[2] = test system: HOP-62 NSCLC
[3] = test system: NCI/ADR-RES ovarian
[4] = test system: SK-MEL-2 melanoma
[5] = test system: DU-145 prostate
[6] = test system: NCI-H23 lung
[7] = test system: HCT-15 colon
[8] = test system: MDA-MB-435 melanoma
[9] = test system: HL-60(TB) leukemia
[10] = test system: NCI-H460 NSCLC
[11] = test system: MCF7 breast
[12] = test system: TK-10 renal

## Nc1ncn(C2OC(CO)C(O)C2O)c(=O)n1 (centres undefined)
[1]
  GI50: 4.67 µM
  TGI: > 37.6 µM
[2]
  GI50: 899 nM
  TGI: 3.51 µM
[3]
  GI50: 4.25 µM
  TGI: > 35.6 µM
[4]
  GI50: 911 nM
  TGI: 2850 nM
[5]
  GI50: 1100 nM
  TGI: 6.53 µM
[6]
  GI50: 7.25 µM
  TGI: 28.4 µM
[7]
  GI50: 2110 nM
  TGI: 8.05 µM
[8]
  GI50: 1710 nM
  TGI: 8.65 µM
[9]
  GI50: 372 nM
  TGI: 806 nM
[10]
  GI50: 239 nM
  TGI: 1270 nM
[11]
  GI50: 1560 nM
  TGI: > 29.8 µM
[12]
  GI50: 2300 nM
  TGI: 30.5 µM
